US9556437B2, “FAT1 gene in cancer and inflammation” (DEPARTMENT OF BIOTECHNOLOGY (DBT), priority 2012, dated 2017)
“Also recorded” adds a separate entry of the source.

Legend:
Format in all cases: cell-based, human
[1] = system: MMP3; experiment: MMP3 mRNA expression by q-PCR; conditions: U87MGsiFAT1 cells
Procedure: (§1) Cell Culture and siRNA Transfection: The human glioma cell lines U87MG, U373, A172, T98G, GOS3 and SW1088 were obtained from ATCC; Rockville, Md., cultured in DMEM (Sigma-Aldrich, Switzerland) supplemented with 10% (v/v) FCS (Sigma-Aldrich), 3.7 g/l sodium bicarbonate (Sigma-Aldrich), Ciprofloxacin 10 μg/ml and 5% CO2 at 37° C. For transfection, 2×10^5 cells were seeded per 25 cm^2 flask. After 24 hrs, cells were transfected with FAT1 siRNA and universal medium GC control siRNA (Invitrogen) according to the manufacturer's protocol with a final concentration of 20 nM of siRNA using LIPOFECTAMINE 2000 (Invitrogen) and Opti-Mem media (Invitrogen). After 4 hrs of siRNA transfection, the media was supplemented with DMEM containing 2×FCS. The ability of each siRNA to mediate knockdown of FAT1 mRNA was confirmed using qRT-PCR. Photomicrographs of the cells were taken using an inverted phase contrast microscope (Nikon TMS, Phase contrast microscope, Japan). For simultaneous knockdown of FAT1 and PDCD4, siRNA from Dharmacon were used. Transfection was performed as earlier with 50 nM of FAT1 siRNA along with 50 nM of PDCD4 siRNA or 50 nM of control siRNA.
(§2) cDNA Synthesis and Quantitative PCR: Total RNA was isolated from cells at appropriate time point (vide supra) using TRIzol reagent (Invitrogen), quantified using a Nanodrop ND-1000 spectrophotometer. […]

[2] = system: IL1β; experiment: IL1β mRNA expression by q-PCR; conditions: U87MGsiFAT1 vs siControl
Procedure: as §1, with “The ability of each siRNA to mediate knockdown of FAT1 mRNA was confirmed using qRT-PCR.” left out
cDNA Synthesis and Quantitative PCR: Total RNA was isolated from cells at appropriate time point (vide supra) using TRIzol reagent (Invitrogen), quantified using a Nanodrop ND-1000 spectrophotometer.

[3] = system: U87MG cells; experiment: Cell cycle analysis by flow cytometry (PI staining); conditions: FACS, 72 hrs after transfection, vs siControl
Procedure: On day 1, siRNA transfection was carried out. 1 ml of OPTIMEM, 50 picomoles of siRNA (siControl and siFAT1) and 3 μl of LIPOFECTAMINE 2000 was used per well. Cells were then analyzed by flow-cytometery after 72 hrs of transfection to assess the cell cycle distribution of individual cells. Cells were fixed in 70% ethanol overnight at −20′C followed by propidium iodide (PI) staining. Florescence was measured on FACS (florescence activated cell sorter, BD Biosciences, Bedford, Mass.). […] On day 1, transfection was carried out. 50 μl of OPTIMEM, 2 picomoles of siRNA (control and FAT1 siRNA) and 0.5 μl of LIPOFECTAMINE 2000 was used per well. After 4 hrs incubation at 37° C., 50 μl 2× media was added per well. After every time point (24, 48, 72 and 96 hrs of transfection), media was removed from wells and 100 μl of MTT (0.2 mg/ml) was added per well and incubated for 2-4 hrs. The formazan crystals formed were dissolved by addition of 100 μl of DMSO and absorbance was measured at 570 nm.

[4] = system: phospho-Akt; experiment: Western blot phospho-Akt; conditions: U87MG cells after FAT1 knockdown
Procedure: FIG. 9: FAT1 knockdown results in increased p-akt level in U87MG cell line; Akt is known to negatively regulate PDCD4 expression; therefore, the effect of FAT1 knockdown on the phosphorylation status of Akt in U87MG cells was checked by Western blot analysis using β-actin as a loading control.
(§3) Western Blotting Analyses: Cells were lysed in triple detergent buffer containing protease and phosphatase inhibitors (Sigma Aldrich), lysates were quantified by BCA kit (Pierce, Thermo Fisher Scientific, Rockford, Ill. USA) and electrophoresed in 10% SDS-PAGE and electroblotted on nitrocellulose membrane (Millipore, Billerica, Mass., USA). Membrane was blocked with 5% bovine serum albumin (BSA) in 1×TBS at 4° C. for overnight. Primary and secondary antibody was diluted in 5% BSA and 0.1% tween-20 in 1×TBS. Blot was incubated in primary antibody overnight at 4° C. followed by secondary antibody incubation for 2 hrs at room temperature. Blot was developed by BCIP-NBT (Promega, Madison, Wis., USA) and captured using Alpha Imager EP software.

[5] = system: COX-2; experiment: Western blot COX-2 protein; conditions: U87MGsiFAT1 vs siControl
Procedure: as §3

[6] = system: FAT1 mRNA; experiment: FAT1 knockdown by siRNA, q-PCR for FAT1; conditions: U87MG cell line
Procedure: as §1, §2

siFAT1: FAT1 specific siRNA (Invitrogen), FAT Stealth RNAi siRNA-I (HSS103567), used for further experiments (sense CCCAACACACCUGUGGUCAUGGUAA; antisense UUACCAUGACCACAGGUGUGUUGGG; Stealth modification, chemistry not fully specified; listed as Homo sapiens)
decrease in MMP3 mRNA expression [1]: more than 10 fold
reduction in IL1β mRNA expression [2]: ~10 fold
distribution of cell population in different phases of cell cycle [3]: no variation; also recorded: No difference
phospho-Akt level [4]: increase
COX-2 protein expression [5]: Significant reduction; also recorded: decreased
knockdown efficiency among three FAT1 siRNAs [6]: maximum knockdown efficiency
